In patent publication US6022969A, “Compositions and methods for treating mast-cell mediated conditions” (AXYS Pharmaceuticals, Inc., priority 1995, dated 2000) one finds Ki data, which are given here for 27 compounds.

Usually Ki stands for the equilibrium dissociation constant of an inhibitor or competing ligand from its target. High values mean lower affinity, low ones higher affinity.

In this experiment the target is tryptase. Put plainly: In vitro tryptase inhibition assay (hydrolysis of tosyl-Gly-Pro-Lys-p-nitroanilide). The format is biochemical, human. Particulars: tosyl-Gly-Pro-Lys-p-nitroanilide 0.5 mM, pH 8.2, 1 h pre-incubation, room temperature. The procedure:
The compounds to be assayed (approximately 1 mg) were dissolved in 200 μL dimethylsulfoxide (DMSO) and diluted 1:10 into buffer containing 50 millimolar (mM) Tris-HCl (pH 8.2), 100 mM sodium chloride, and 0.05% polyoxyethylenesorbitan monolaurate (Tween-20®, available from Sigma, St. Louis, Mo.). Seven additional threefold dilutions were made from the initial dilution into the same buffer supplemented with 10% DMSO. Aliquots (50 microliters, μL) from each of the eight dilutions in the series were transferred to individual wells in a 96-well U-bottom microtiter plate. 25 μL of a stock solution of tryptase was added to each well and the samples were mixed and incubated for one hour at room temperature (tryptase was purified from human lung and skin tissue preparations, HMC-1 (human mast cell line) and also obtained from commercial sources (ICN Biomedicals, Irvine, Calif.; Athens Research & Technology, Athens, Ga.)). […] The tryptase solution was prepared by placing 60 μg/mL of tryptase into solution with 10 mM MES (2-[N-Morpholino]ethane sulfonic acid) containing 2 mM CaCl2, 20% glycerol and 50 μg/mL heparin. The enzyme reaction was initiated with the addition of the synthetic tripeptide substrate, tosyl-Gly-Pro-Lys-p-nitroanilide (available from Sigma, 25 μL; 0.5 mM final concentration).
However, Ki ' varies with the enzyme concentration used in the enzyme assay. […] The y-intercept of a replot of IC50 (ordinate) versus tryptase concentration (abscissa) produces a value for Ki '.
The inhibition constants (Ki ', micromolar (μM)) were determined for the compounds of the present invention.
In turn, `NCC12CCC(CNC(=O)N3CCN(C(=O)O[C@H]4CCC[C@@H](OC(=O)N5CCN(C(=O)NCC67CCC(CN)(CC6)CC7)CC5)CCC4)CC3)(CC1)CC2` (relative stereo) [Compound 15, cis-1,5-cyclooctylene[4-(4-aminomethylbicyclo[2.2.2]oct-1-ylmethylcarbamoyl)-1-piperazinecarboxylate]] yielded a Ki of 302 nM.
Consider `N=C(N)Nc1ccc(CNC(=O)CNC(=O)OC[C@H]2CC[C@H](COC(=O)NCC(=O)NCc3ccc(NC(=N)N)cc3)CC2)cc1` [Compound 1, trans-1,4-Cyclohexylenedimethylene bis(4-guanidinobenzylcarbamoylmethylaminocarboxylate)], for which the Ki was 4 nM.
`N=C(N)Nc1ccc(CNC(=O)CNC(=O)O[C@H]2CCC[C@@H](OC(=O)NCC(=O)NCc3ccc(NC(=N)N)cc3)CCC2)cc1` [Compound 2, cis-1,5-Cyclooctylene bis(4-guanidinobenzylcarbamoylmethylaminocarboxylate)] displayed a Ki of 2 nM.
`NC[C@H]1CC[C@H](CNC(=O)N2CCN(C(=O)O[C@H]3CCC[C@@H](OC(=O)N4CCN(C(=O)NC[C@H]5CC[C@H](CN)CC5)CC4)CCC3)CC2)CC1` [Compound 4, cis-1,5-Cyclooctylene bis[4-((trans-4-aminomethylcyclohexylenemethylene)carbamoyl)-1-piperazinecarboxylate]] yielded a Ki of 15.8 nM.
With `N=C(N)N1CCC(CCC(=O)N2CCN(C(=O)O[C@H]3CCC[C@@H](OC(=O)N4CCN(C(=O)CCC5CCN(C(=N)N)CC5)CC4)CCC3)CC2)CC1` [Compound 5, cis-1,5-cyclooctylene bis{4-[3-(1-amidinopiperid-4-yl)propionoyl]-1-piperazinecarboxylate}] the figure was 2 nM; with `N=C(N)c1ccc(CCC(=O)N2CCN(C(=O)O[C@H]3CCC[C@@H](OC(=O)N4CCN(C(=O)CCc5ccc(C(=N)N)cc5)CC4)CCC3)CC2)cc1` [Compound 6, cis-1,5-cyclooctylene bis{4-[3(4-amidinophenyl)propionoyl]-1-piperazinecarboxylate}], 0.37 nM; with `N=C(N)N1CCC(CC(=O)N2CCN(C(=O)O[C@H]3CCC[C@@H](OC(=O)N4CCN(C(=O)CC5CCN(C(=N)N)CC5)CC4)CCC3)CC2)CC1` [Compound 7, cis-1,5-cyclooctylene bis{[4-(1-amidinopiperid-4-ylacetyl)-1-piperazinecarboxylate]}], 5 nM.
As for `N=C(N)N1CCC(CCNC(=O)N2CCN(C(=O)O[C@H]3CCC[C@@H](OC(=O)N4CCN(C(=O)NCCC5CCN(C(=N)N)CC5)CC4)CCC3)CC2)CC1` [Compound 8, cis-1,5-cyclooctylene bis{4-[2-(1-amidinopiperid-4-yl)ethylcarbamoyl]-1-piperazinecarboxylate}], the figure is 30 nM.
As for `NC[C@H]1CC[C@H](C(=O)N2CCN(C(=O)O[C@H]3CCC[C@@H](OC(=O)N4CCN(C(=O)[C@H]5CC[C@H](CN)CC5)CC4)CCC3)CC2)CC1` [Compound 9, cis-1,5-cyclooctylene bis[4-(trans-4-aminomethylcyclohexylcarbonyl)-1-piperazinecarboxylate]], the figure is 493 nM; as for `N=C(N)Nc1ccc(CC(=O)N2CCN(C(=O)O[C@H]3CCC[C@@H](OC(=O)N4CCN(C(=O)Cc5ccc(NC(=N)N)cc5)CC4)CCC3)CC2)cc1` [Compound 10, cis-1,5-cyclooctylene bis[4-(4-guanidinophenylacetyl)-1-piperazinecarboxylate]], 0.47 nM.
As for `N=C(N)Nc1ccc(CCC(=O)N2CCN(C(=O)O[C@H]3CCC[C@@H](OC(=O)N4CCN(C(=O)CCc5ccc(NC(=N)N)cc5)CC4)CCC3)CC2)cc1` [Compound 11, cis-1,5-cyclooctylene bis[4-[3-(4-guanidinophenyl)propionyl]-1-piperazinecarboxylate}], the Ki is 207 nM.
Consider `NC[C@H]1CC[C@H](CNC(=O)N2CCCN(C(=O)O[C@H]3CCC[C@@H](OC(=O)N4CCCN(C(=O)NC[C@H]5CC[C@H](CN)CC5)CC4)CCC3)CC2)CC1` [Compound 12, cis-1,5-cyclooctylene bis[4-(trans-4-aminomethylcyclohexylmethylcarbamoyl)-1-(perhydro-7H-1,4-diazepine)carboxylate]], for which the Ki amounted to 260 nM.
As to `NCc1ccc(CNC(=O)N2CCN(C(=O)O[C@H]3CCC[C@@H](OC(=O)N4CCN(C(=O)NCc5ccc(CN)cc5)CC4)CCC3)CC2)cc1` [Compound 13, cis-1,5-cyclooctylene bis[4-(4-aminomethylbenzylcarbamoyl)-1-piperazinecarboxylate]], the Ki is 0.13 nM.
Turning to `NCCc1ccc(CNC(=O)N2CCN(C(=O)O[C@H]3CCC[C@@H](OC(=O)N4CCN(C(=O)NCc5ccc(CCN)cc5)CC4)CCC3)CC2)cc1` [Compound 14, cis-1,5-cyclooctylene bis{4-[4-(2-aminoethyl)benzylcarbamoyl]-1-piperazinecarboxylate]], the Ki is 1300 nM.
As for `NCCc1ccc(CC(=O)N2CCN(C(=O)O[C@H]3CCC[C@@H](OC(=O)N4CCN(C(=O)Cc5ccc(CCN)cc5)CC4)CCC3)CC2)cc1` [Compound 16], the figure is 1.5 nM; as for `NCCc1ccc(C(=O)N2CCN(C(=O)O[C@H]3CCC[C@@H](OC(=O)N4CCN(C(=O)c5ccc(CCN)cc5)CC4)CCC3)CC2)cc1` [Compound 17, cis-1,5-cyclooctylene bis{4-[4-(2-aminoethyl)benzoyl]-1-piperazinecarboxylate]], 4.9 nM; as for `CC(CN)c1ccc(C(=O)N2CCN(C(=O)O[C@H]3CCC[C@@H](OC(=O)N4CCN(C(=O)c5ccc(C(C)CN)cc5)CC4)CCC3)CC2)cc1` (stereo partly drawn) [Compound 18, cis-1,5-cyclooctylene bis{4-[4-(1-aminoprop-2-yl)benzoyl]-1-piperazinecarboxylate}], 713 nM.
With `NCCC1CCN(C(=O)N2CCN(C(=O)O[C@H]3CCC[C@@H](OC(=O)N4CCN(C(=O)N5CCC(CCN)CC5)CC4)CCC3)CC2)CC1` [Compound 19] the figure was 1510 nM; with `NCC[C@H]1CC[C@H](CC(=O)N2CCN(C(=O)O[C@H]3CCC[C@@H](OC(=O)N4CCN(C(=O)C[C@H]5CC[C@H](CCN)CC5)CC4)CCC3)CC2)CC1` [Compound 20, cis-1,5-cyclooctylene bis{4-[trans-4-(2-aminoethyl)cyclohexylacetyl]-1-piperazinecarboxylate}], 0.81 nM.
`NCCC1CCC(C(=O)N2CCN(C(=O)O[C@H]3CCC[C@@H](OC(=O)N4CCN(C(=O)C5CCC(CCN)CC5)CC4)CCC3)CC2)CC1` (stereo partly drawn) [Compound 22, cis-1,5-cyclooctylene bis{4-[4-(2-aminoethyl)cyclohexylcarbonyl]-1-piperazinecarboxylate]] gave a Ki of 9 nM.
Turning to `NCC1CCN(C(=O)NCC2CCN(C(=O)OC[C@H]3CC[C@H](COC(=O)N4CCC(CNC(=O)N5CCC(CN)CC5)CC4)CC3)CC2)CC1` [Compound 23, trans-1,4-cyclohexylenedimethylene bis{4-[4(aminomethyl)piperid-1-ylcarbonylaminomethyl]-1-piperidinecarboxylate}], the affinity, expressed as Ki, was 119 nM.
As for `N=C(N)c1ccc(CC(=O)N2CCN(C(=O)O[C@H]3CCC[C@@H](OC(=O)N4CCN(C(=O)Cc5ccc(C(=N)N)cc5)CC4)CCC3)CC2)cc1` [Compound 24, cis-1,5-cyclooctylene bis[4-(4-amidinophenylacetyl)-1-piperazinecarboxylate)], the figure is 0.16 nM; as for `NCC1CCN(C(=O)NCCCCNC(=O)O[C@H]2CCC[C@@H](OC(=O)NCCCCNC(=O)N3CCC(CN)CC3)CCC2)CC1` [Compound 25, cis-1,5-cyclooctylene bis{4-[4-(aminomethyl)piperid-1-ylcarbonylamino]butylaminocarboxylate}], 734 nM; as for `NCC1CCN(C(=O)NCC2CCN(C(=O)O[C@H]3CCC[C@@H](OC(=O)N4CCC(CNC(=O)N5CCC(CN)CC5)CC4)CCC3)CC2)CC1` [Compound 26, cis-1,5-cyclooctylene bis{4-[4-(aminomethyl)piperid-1-ylcarbonylaminomethyl)-1-piperidinecarboxylate}], 332 nM.
`N=C(N)N1CCC(CNC(=O)N2CCN(C(=O)O[C@H]3CCC[C@@H](OC(=O)N4CCN(C(=O)NCC5CCN(C(=N)N)CC5)CC4)CCC3)CC2)CC1` [Compound 27, cis-1,5-cyclooctylene bis[4-(1-amidinopiperid-4-ylmethylcarbamoyl)-1-piperazinecarboxylate]] returned a Ki of 614 nM.
The compound `N=C(N)c1ccc(CNC(=O)N2CCN(C(=O)O[C@H]3CCC[C@@H](OC(=O)N4CCN(C(=O)NCc5ccc(C(=N)N)cc5)CC4)CCC3)CC2)cc1` [Compound 28, cis-1,5-cyclooctylene bis[4-(4-amidinobenzylcarbamoyl)-1-piperazinecarboxylate}] gave a Ki of 8.7 nM.
With `N=C(N)Nc1ccc(CNC(=O)N2CCN(C(=O)OC3COC4C(OC(=O)N5CCN(C(=O)NCc6ccc(NC(=N)N)cc6)CC5)COC34)CC2)cc1` (stereo not drawn) [Compound 29, cis-2,6-(4,8-dioxabicyclo[3.3.0]octylene)bis[4-(4-guanidinobenzylcarbamoyl)-1-piperazinecarboxylate]] the figure was 3.8 nM.
